From ChEMBL document CHEMBL1201861, “Genomics of Drug Sensitity in Cancer screening data, Wellcome Trust Sanger Institute”
pIC50: −log10 of the molar value.

Tests used:
Assay in all cases: cells
[1] = system: MeWo; format: functional, cell-based, Homo sapiens; conditions: Homo sapiens, MeWo;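 further: growth inhibition of MeWo cells, determined by a cell viability readout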
Description: SANGER: Inhibition of human Mewo cell growth in a cell viability assay.

[2] = system: MC116; format: functional, cell-based; conditions: Homo sapiens;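 further: growth inhibition of MC116 cells, read out with a cell viability assay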
Description: SANGER: Inhibition of human MC116 cell growth in a cell viability assay.

[3] = system: MLMA; format: functional, cell-based, Homo sapiens; conditions: Homo sapiens, MLMA;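 further: growth inhibition of MLMA cells (human), determined through a cell viability readout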
Description: SANGER: Inhibition of human MLMA cell growth in a cell viability assay.

[4] = system: NOS-1; format: functional, cell-based, Homo sapiens; conditions: Homo sapiens, NOS-1;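 further: growth inhibition of the human NOS-1 cell line, read out with a cell viability assay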
Description: SANGER: Inhibition of human NOS-1 cell growth in a cell viability assay.

[5] = system: WM-115; format: functional, cell-based, Homo sapiens; conditions: Homo sapiens, WM-115
Description: SANGER: Inhibition of human WM-115 cell growth in a cell viability assay.

[6] = system: TCC-SUP; format: functional, cell-based, Homo sapiens; conditions: Homo sapiens, TCC-SUP;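 further: growth inhibition of TCC-SUP cells, read out with a cell viability assay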
Description: SANGER: Inhibition of human TCCSUP cell growth in a cell viability assay.

[7] = system: COR-L105; format: functional, cell-based, Homo sapiens; conditions: Homo sapiens, COR-L105;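 further: cell growth inhibition determined with a viability assay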
Description: SANGER: Inhibition of human COR-L105 cell growth in a cell viability assay.

[8] = system: LB1047-RCC; format: functional, cell-based, Homo sapiens; conditions: Homo sapiens, LB1047-RCC;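 further: inhibition of cell growth, determined with a cell viability assay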
Description: SANGER: Inhibition of human LB1047-RCC cell growth in a cell viability assay.

[9] = system: KGN; format: functional, cell-based, Homo sapiens; conditions: Homo sapiens, KGN;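 further: growth inhibition of KGN cells, read out with a cell viability assay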
Description: SANGER: Inhibition of human KGN cell growth in a cell viability assay.

[10] = system: HC-1; format: functional, cell-based; conditions: Homo sapiens;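 further: growth inhibition of HC-1 cells measured by a cell viability assay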
Description: SANGER: Inhibition of human HC-1 cell growth in a cell viability assay.

[11] = system: HCC38; format: functional, cell-based, Homo sapiens; conditions: Homo sapiens, HCC38;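 further: cell viability assay on the human HCC38 cell line, with IC50 marking the concentration that inhibits cell growth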
Description: SANGER: Inhibition of human HCC38 cell growth in a cell viability assay.

[12] = system: KOSC-2; format: functional, cell-based, Homo sapiens; conditions: Homo sapiens, KOSC-2;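 further: growth inhibition of KOSC-2 cells, read out by a cell viability assay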
Description: SANGER: Inhibition of human KOSC-2 cell growth in a cell viability assay.

[13] = system: U-118-MG; format: functional, cell-based, Homo sapiens; conditions: Homo sapiens, U-118-MG
Description: SANGER: Inhibition of human U-118-MG cell growth in a cell viability assay.

[14] = system: 8-MG-BA; format: functional, cell-based, Homo sapiens; conditions: Homo sapiens, 8-MG-BA;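 further: growth inhibition of 8-MG-BA cells, read out with a cell viability assay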
Description: SANGER: Inhibition of human 8-MG-BA cell growth in a cell viability assay.

[15] = system: VA-ES-BJ; format: functional, cell-based, Homo sapiens; conditions: Homo sapiens, VA-ES-BJ;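 further: growth inhibition of the VA-ES-BJ cell line, read out by a cell viability assay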
Description: SANGER: Inhibition of human VA-ES-BJ cell growth in a cell viability assay.

[16] = system: MFE-280; format: functional, cell-based, Homo sapiens; conditions: Homo sapiens, MFE-280;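 further: growth inhibition of MFE-280 cells, determined with a cell viability readout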
Description: SANGER: Inhibition of human MFE-280 cell growth in a cell viability assay.

[17] = system: RXF 393; format: functional, cell-based; conditions: Homo sapiens;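 further: growth inhibition of human RXF 393 cells, read out with a cell viability assay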
Description: SANGER: Inhibition of human RXF393 cell growth in a cell viability assay.

[18] = system: ES8; format: functional, cell-based, Homo sapiens; conditions: Homo sapiens, ES8;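 further: growth inhibition of human ES8 cells, read out with a cell viability assay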
Description: SANGER: Inhibition of human ES8 cell growth in a cell viability assay.

[19] = system: CTV-1; format: functional, cell-based; conditions: Homo sapiens;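 further: growth inhibition of the cell line, read out with a cell viability assay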
Description: SANGER: Inhibition of human CTV-1 cell growth in a cell viability assay.

[20] = system: ML-2; format: functional, cell-based; conditions: Homo sapiens;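 further: growth inhibition of ML-2 cells, measured with a cell viability readout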
Description: SANGER: Inhibition of human ML-2 cell growth in a cell viability assay.

[21] = system: SH-4; format: functional, cell-based, Homo sapiens; conditions: Homo sapiens, SH-4;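 further: growth inhibition of SH-4 cells, read out with a cell viability assay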
Description: SANGER: Inhibition of human SH-4 cell growth in a cell viability assay.

[22] = system: HuP-T3; format: functional, cell-based, Homo sapiens; conditions: Homo sapiens, HuP-T3;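 further: HuP-T3 cell growth inhibition, read out with a cell viability assay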
Description: SANGER: Inhibition of human HuP-T3 cell growth in a cell viability assay.

[23] = system: LB2518-MEL; format: functional, cell-based, Homo sapiens; conditions: Homo sapiens, LB2518-MEL;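 further: growth inhibition of human LB2518-MEL cells, measured with a cell viability assay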
Description: SANGER: Inhibition of human LB2518-MEL cell growth in a cell viability assay.

[24] = system: OVCAR-4; format: functional, cell-based, Homo sapiens; conditions: Homo sapiens, OVCAR-4;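 further: growth inhibition of human OVCAR-4 cells, measured with a cell viability assay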
Description: SANGER: Inhibition of human OVCAR-4 cell growth in a cell viability assay.

[25] = system: NCI-H226; format: functional, cell-based, Homo sapiens; conditions: Homo sapiens, NCI-H226;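 further: cell viability read-out used to gauge growth inhibition of the cells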
Description: SANGER: Inhibition of human NCI-H226 cell growth in a cell viability assay.

[26] = system: DMS-273; format: functional, cell-based, Homo sapiens; conditions: Homo sapiens, DMS-273
Description: SANGER: Inhibition of human DMS-273 cell growth in a cell viability assay.

[27] = system: KS-1; format: functional, cell-based, Homo sapiens; conditions: Homo sapiens, KS-1;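 further: growth inhibition of KS-1 cells, read out with a cell viability assay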
Description: SANGER: Inhibition of human KS-1 cell growth in a cell viability assay.

[28] = system: MOLT-16; format: functional, cell-based; conditions: Homo sapiens;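 further: growth inhibition of human MOLT-16 cells, read out with a cell viability assay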
Description: SANGER: Inhibition of human MOLT-16 cell growth in a cell viability assay.

[29] = system: IST-SL1; format: functional, cell-based, Homo sapiens; conditions: Homo sapiens, IST-SL1;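 further: growth inhibition of human IST-SL1 cells, read out with a cell viability assay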
Description: SANGER: Inhibition of human IST-SL1 cell growth in a cell viability assay.

[30] = system: SiHa; format: functional, cell-based, Homo sapiens; conditions: Homo sapiens, SiHa;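 further: Viability-based readout of growth inhibition in SiHa cells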
Description: SANGER: Inhibition of human SiHa cell growth in a cell viability assay.

[31] = system: KU812 cell line; format: functional, cell-based; conditions: Homo sapiens;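 further: growth inhibition of KU812 cells, read out with a cell viability assay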
Description: SANGER: Inhibition of human KU812 cell growth in a cell viability assay.

[32] = system: HO-1-N-1; format: functional, cell-based, Homo sapiens; conditions: Homo sapiens, HO-1-N-1;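 further: growth inhibition of human HO-1-N-1 cells, read out with a cell viability assay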
Description: SANGER: Inhibition of human HO-1-N-1 cell growth in a cell viability assay.

[33] = system: IGROV-1; format: functional, cell-based, Homo sapiens; conditions: Homo sapiens, IGROV-1;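 further: reduction of IGROV-1 cell growth, read out with a viability assay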
Description: SANGER: Inhibition of human IGROV-1 cell growth in a cell viability assay.

[34] = system: EW-13; format: functional, cell-based; conditions: Homo sapiens;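 further: growth inhibition of EW-13 cells, read out with a cell viability assay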
Description: SANGER: Inhibition of human EW-13 cell growth in a cell viability assay.

[35] = system: OCUB-M; format: functional, cell-based, Homo sapiens; conditions: Homo sapiens, OCUB-M;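 further: growth inhibition of the cancer cell line, read out through a cell viability assay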
Description: SANGER: Inhibition of human OCUB-M cell growth in a cell viability assay.

[36] = system: UO-31; format: functional, cell-based; conditions: Homo sapiens;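 further: cell viability assay measuring inhibition of cell growth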
Description: SANGER: Inhibition of human U031 cell growth in a cell viability assay.

[37] = system: MZ1-PC; format: functional, cell-based, Homo sapiens; conditions: Homo sapiens, MZ1-PC;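 further: cell viability assay measuring growth inhibition of human MZ1-PC cells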
Description: SANGER: Inhibition of human MZ1-PC cell growth in a cell viability assay.

[38] = system: MPP-89; format: functional, cell-based, Homo sapiens; conditions: Homo sapiens, MPP-89;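 further: growth inhibition of human MPP-89 cells, read out with a cell viability assay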
Description: SANGER: Inhibition of human MPP-89 cell growth in a cell viability assay.

[39] = system: HH; format: functional, cell-based; conditions: Homo sapiens
Description: SANGER: Inhibition of human HH cell growth in a cell viability assay.

[40] = system: HCC70; format: functional, cell-based, Homo sapiens; conditions: Homo sapiens, HCC70;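 further: cell viability assay measuring how strongly the compound suppresses proliferation of HCC70 cells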
Description: SANGER: Inhibition of human HCC70 cell growth in a cell viability assay.

[41] = system: KP-N-YS; format: functional, cell-based; conditions: Homo sapiens;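 further: cell viability assay measuring inhibition of cell line growth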
Description: SANGER: Inhibition of human KP-N-YS cell growth in a cell viability assay.

[42] = system: CWR22R; format: functional, cell-based, Homo sapiens; conditions: Homo sapiens, 22Rv1;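 further: growth inhibition of 22Rv1 cells, read out with a cell viability assay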
Description: SANGER: Inhibition of human 22RV1 cell growth in a cell viability assay.

[43] = system: KARPAS-45; format: functional, cell-based; conditions: Homo sapiens;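 further: inhibition of cell line growth, read out through a viability assay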
Description: SANGER: Inhibition of human KARPAS-45 cell growth in a cell viability assay.

[44] = system: SKG-IIIa; format: functional, cell-based, Homo sapiens; conditions: Homo sapiens, SKG-IIIa;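 further: cell growth inhibition, read out with a cell viability assay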
Description: SANGER: Inhibition of human SKG-IIIa cell growth in a cell viability assay.

[45] = system: NCI-H292; format: functional, cell-based, Homo sapiens; conditions: Homo sapiens, NCI-H292;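 further: growth inhibition of NCI-H292 cells, read out with a cell viability assay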
Description: SANGER: Inhibition of human NCI-H292 cell growth in a cell viability assay.

[46] = system: CHP-212; format: functional, cell-based, Homo sapiens; conditions: Homo sapiens, CHP-212
Description: SANGER: Inhibition of human CHP-212 cell growth in a cell viability assay.

[47] = system: NCI-H510A; format: functional, cell-based; conditions: Homo sapiens;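 further: growth inhibition of NCI-H510A cells, read out with a cell viability assay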
Description: SANGER: Inhibition of human NCI-H510A cell growth in a cell viability assay.

[48] = system: SF-295; format: functional, cell-based, Homo sapiens; conditions: Homo sapiens, SF-295; read-out: IC50;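 further: growth inhibition of SF-295 cells, read out with a cell viability assay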
Description: SANGER: Inhibition of human SF295 cell growth in a cell viability assay.

[49] = system: NOMO-1; format: functional, cell-based; conditions: Homo sapiens;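 further: growth inhibition of human NOMO-1 cells measured by a cell viability assay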
Description: SANGER: Inhibition of human NOMO-1 cell growth in a cell viability assay.

[50] = system: SNU-449; format: functional, cell-based, Homo sapiens; conditions: Homo sapiens, SNU-449
Description: SANGER: Inhibition of human SNU-449 cell growth in a cell viability assay.

[51] = system: KE-37; format: functional, cell-based; conditions: Homo sapiens;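 further: growth inhibition of KE-37 cells, read out with a cell viability assay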
Description: SANGER: Inhibition of human KE-37 cell growth in a cell viability assay.

[52] = system: 5637; format: functional, cell-based, Homo sapiens; conditions: Homo sapiens
Description: SANGER: Inhibition of human 5637 cell growth in a cell viability assay.

[53] = system: OS-RC-2; format: functional, cell-based, Homo sapiens; conditions: Homo sapiens, OS-RC-2;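 further: growth inhibition of human OS-RC-2 cells, measured by a cell viability assay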
Description: SANGER: Inhibition of human OS-RC-2 cell growth in a cell viability assay.

CN(c1ncccc1CNc1nc(Nc2ccc3c(c2)CC(=O)N3)ncc1C(F)(F)F)S(C)(=O)=O [PF-00562271]
pIC50 [1]: < 5.59
pIC50 [2]: < 5.59
pIC50 [3]: < 5.59
pIC50 [4]: < 5.59
pIC50 [5]: < 5.59
pIC50 [6]: < 5.59
pIC50 [7]: < 5.59
pIC50 [8]: < 5.59
pIC50 [9]: < 5.59
pIC50 [10]: < 5.59
pIC50 [11]: < 5.59
pIC50 [12]: < 5.59
pIC50 [13]: < 5.59
pIC50 [14]: < 5.59
pIC50 [15]: 5.72
pIC50 [16]: < 5.59
pIC50 [17]: < 5.59
pIC50 [18]: < 5.59
pIC50 [19]: < 5.59
pIC50 [20]: 5.78
pIC50 [21]: < 5.59
pIC50 [22]: < 5.59
pIC50 [23]: < 5.59
pIC50 [24]: < 5.59
pIC50 [25]: < 5.59
pIC50 [26]: < 5.59
pIC50 [27]: < 5.59
pIC50 [28]: < 5.59
pIC50 [29]: < 5.59
pIC50 [30]: < 5.59
pIC50 [31]: < 5.59
pIC50 [32]: < 5.59
pIC50 [33]: 6.09
pIC50 [34]: 5.79
pIC50 [35]: < 5.59
pIC50 [36]: < 5.59
pIC50 [37]: 5.79
pIC50 [38]: < 5.59
pIC50 [39]: < 5.59
pIC50 [40]: < 5.59
pIC50 [41]: < 5.59
pIC50 [42]: < 5.59
pIC50 [43]: < 5.59
pIC50 [44]: < 5.59
pIC50 [45]: < 5.59
pIC50 [46]: 5.68
pIC50 [47]: < 5.59
pIC50 [48]: < 5.59
pIC50 [49]: < 5.59
pIC50 [50]: < 5.59
pIC50 [51]: < 5.59
pIC50 [52]: < 5.59
pIC50 [53]: < 5.59

Cn1cncc1[C@@](N)(c1ccc(Cl)cc1)c1ccc2c(c1)c(-c1cccc(Cl)c1)cc(=O)n2C [TIPIFARNIB]
pIC50 [1]: 5.69
pIC50 [2]: 5.39
pIC50 [3]: < 4.80
pIC50 [4]: 5.67
pIC50 [5]: < 4.80
pIC50 [6]: 5.24
pIC50 [7]: 5.14
pIC50 [8]: < 4.80
pIC50 [9]: 6.34
pIC50 [10]: 5.76
pIC50 [11]: 5.21
pIC50 [12]: < 4.80
pIC50 [13]: < 4.80
pIC50 [14]: 5.67
pIC50 [15]: 5.63
pIC50 [16]: < 4.80
pIC50 [17]: < 4.80
pIC50 [18]: 4.98
pIC50 [19]: 5.34
pIC50 [20]: > 7.20
pIC50 [21]: 5.88
pIC50 [22]: < 4.80
pIC50 [23]: 5.68
pIC50 [24]: 5.66
pIC50 [25]: < 4.80
pIC50 [26]: 6.14
pIC50 [27]: 6.11
pIC50 [28]: 6.59
pIC50 [29]: < 4.80
pIC50 [30]: < 4.80
pIC50 [31]: 7.01
pIC50 [32]: 4.98
pIC50 [33]: 6.68
pIC50 [34]: 5.19
pIC50 [35]: 6.33
pIC50 [36]: 4.97
pIC50 [37]: 5.55
pIC50 [38]: < 4.80
pIC50 [39]: 6.72
pIC50 [40]: 5.98
pIC50 [41]: < 4.80
pIC50 [42]: 5.49
pIC50 [43]: 4.89
pIC50 [44]: < 4.80
pIC50 [45]: 5.03
pIC50 [46]: 5.86
pIC50 [47]: < 4.80
pIC50 [48]: 5.66
pIC50 [49]: < 4.80
pIC50 [50]: 6.21
pIC50 [51]: 5.64
pIC50 [52]: 5.99
pIC50 [53]: 4.82
